The results in this text go back to patent US20250127787A1, “METHODS FOR TREATING PERIPHERAL NEUROPATHY” (University of Pittsburgh - Of the Commonwealth System of …, priority 2021, published 2025).

Entries after “also recorded” stand apart in the source; their conditions may differ.

One test has as its system protein carbonylation. Put plainly: Protein carbonylation in PAC-CIPN rat epidermis. The note with it: 8-AG 5 mg/kg/day in drinking water. It counts as in vivo. As to the method:
Animals: This study employed female Harlan Sprague Dawley (HSD) rats (3-4 mo; Envigo, Indianapolis, IN) and were divided into the following groups: 1) Control, 2) Cyclophosphamide (CYP, 75 mg/kg i.p. in saline vehicle; administered on days 0, 3 and 6 until sacrifice on day 8); 4) Paclitaxel (2 mg/kg i.p., 2 mg/kg i.p. in saline from a stock solution of 50/50 CremophorEL/ethanol); administered on days 0, 2, 4 and 6 until sacrifice on day 8; 4) 8-aminoguanine (8-AG; 5 mg/kg/day in drinking water; beginning 2 weeks prior to either CYP or PAC and continuing until sacrifice (day 8)). The dose of 8-AG was based on the experiments described above. […] All tissues (spinal cord and hindpaw epidermis) were removed from isoflurane anesthetized rats and the tissue was used for various experimental approaches as described below. At the end of tissue removal, animals were sacrificed by thoracotomy. […]

Another test concerns IBA-1. Briefly: Microglial IBA-1 expression and activation in CYP-CIPN rats. It counts as in vivo, rat. The note with it: oral 8-AG; for effect on CYP-induced increase in IBA-1 expression (microglia): Western immunoblotting. The protocol: Animals: This study employed female Harlan Sprague Dawley (HSD) rats (3-4 mo; Envigo, Indianapolis, IN) and were divided into the following groups: 1) Control, 2) Cyclophosphamide (CYP, 75 mg/kg i.p. in saline vehicle; administered on days 0, 3 and 6 until sacrifice on day 8); 4) Paclitaxel (2 mg/kg i.p., 2 mg/kg i.p. in saline from a stock solution of 50/50 CremophorEL/ethanol); administered on days 0, 2, 4 and 6 until sacrifice on day 8; 4) 8-aminoguanine (8-AG; 5 mg/kg/day in drinking water; beginning 2 weeks prior to either CYP or PAC and continuing until sacrifice (day 8)). The dose of 8-AG was based on the experiments described above. […] All tissues (spinal cord and hindpaw epidermis) were removed from isoflurane anesthetized rats and the tissue was used for various experimental approaches as described below. At the end of tissue removal, animals were sacrificed by thoracotomy.
Thus, the effectiveness of 8-aminoguanine in CYP—CIPN microglial expression and activation was evaluated.

Consider `Nc1nc2[nH]c(N)nc2c(=O)[nH]1` [8-AG, 8-Aminoguanine], for which the “effect on PAC-induced protein carbonylation” value with protein carbonylation was “restored values to that of a control state; also recorded: significantly reduced”. Besides, the “effect on CYP-induced increase in IBA-1 expression (microglia)” value in the test with IBA-1 is “normalized”; in the test with IBA-1 (listed as 8-aminoguanine), “reversed; also recorded: normalized”. Also, in the test with IBA-1 (measured by densitometry), the “effect on CYP-induced increase in spinal IBA-1 activation” value is “normalized”.
